Results: patent publication US12077503B2, “Substituted cyclic amides and their use as herbicides” (FMC CORPORATION, priority 2015, dated 2024)

Columns and labels:
Format in all cases: in vivo
[1] = test system: Galium (catchweed bedstraw, Galium aparine); test: Test A postemergence; details: for Galium plant response rating: 125 g ai/ha, visual injury rating on 0 to 100 scale (0 no effect, 100 complete control), approx. 10 d; for Plant response rating, Galium: 500 g ai/ha
From the text: (§1) Seeds of plant species selected from barnyardgrass (Echinochloa crus-galli), Kochia (Kochia scoparia), ragweed (common ragweed, Ambrosia elatior), ryegrass, Italian (Italian ryegrass, Lolium multiflorum), crabgrass, large (Digitaria sanguinalis), giant foxtail (Setaria faberii), green foxtail (Setaria viridis), morningglory (Ipomoea spp.), pigweed (Amaranthus retroflexus), velvetleaf (Abutilon theophrasti), wheat (Triticum aestivum), and corn (Zea mays) were planted into a blend of loam soil and sand and treated preemergence with a directed soil spray using test chemicals formulated in anon-phytotoxic solvent mixture which included a surfactant.
(§2) At the same time, plants selected from these crop and weed species and also blackgrass (Alopecurus myosuroides), and Galium (catchweed bedstraw, Galium aparine) were planted in pots containing the same blend of loam soil and sand and treated with postemergence applications of test chemicals formulated in the same manner. Plants ranged in height from 2 to 10 cm and were in the one- to two-leaf stage for the postemergence treatment. Treated plants and untreated controls were maintained in a greenhouse for approximately 10 d, after which time all treated plants were compared to untreated controls and visually evaluated for injury. Plant response ratings, summarized in Table A, are based on a 0 to 100 scale where 0 is no effect and 100 is complete control. A dash (-) response means no test result.

[2] = test system: pigweed (Amaranthus retroflexus); test: Test A postemergence; details: for Pigweed plant response rating: 125 g ai/ha, visual injury rating on 0 to 100 scale (0 no effect, 100 complete control), approx. 10 d; for Plant response rating, Pigweed: 500 g ai/ha
From the text: as §1, §2

[3] = test system: ragweed (common ragweed, Ambrosia elatior); test: Test A postemergence; details: for Ragweed plant response rating: 125 g ai/ha, visual injury rating on 0 to 100 scale (0 no effect, 100 complete control), approx. 10 d; for Plant response rating, Ragweed: 500 g ai/ha
From the text: as §1, §2

[4] = test system: barnyardgrass (Echinochloa crus-galli); test: Test A postemergence; details: for Barnyardgrass plant response rating: 125 g ai/ha, visual injury rating on 0 to 100 scale (0 no effect, 100 complete control), approx. 10 d; for Plant response rating, Barnyardgrass: 500 g ai/ha
From the text: as §1, §2

[5] = test system: Kochia (Kochia scoparia); test: Test A postemergence; details: for Kochia plant response rating: 125 g ai/ha, visual injury rating on 0 to 100 scale (0 no effect, 100 complete control), approx. 10 d; for Plant response rating, Kochia: 500 g ai/ha
From the text: as §1, §2

[6] = test system: giant foxtail (Setaria faberii); test: Test A postemergence; details: for Foxtail, Giant plant response rating: 125 g ai/ha, visual injury rating on 0 to 100 scale (0 no effect, 100 complete control), approx. 10 d; for Plant response rating, Foxtail, Giant: 500 g ai/ha
From the text: as §1, §2

[7] = test system: ryegrass, Italian (Italian ryegrass, Lolium multiflorum); test: Test A postemergence; details: for Ryegrass, Italian plant response rating: 125 g ai/ha, visual injury rating on 0 to 100 scale (0 no effect, 100 complete control), approx. 10 d; for Plant response rating, Ryegrass, Italian: 500 g ai/ha
From the text: as §1, §2

[8] = test system: blackgrass (Alopecurus myosuroides); test: Test A postemergence; details: for Blackgrass plant response rating: 125 g ai/ha, visual injury rating on 0 to 100 scale (0 no effect, 100 complete control), approx. 10 d; for Plant response rating, Blackgrass: 500 g ai/ha
From the text: as §1, §2

[9] = test system: wheat (Triticum aestivum); test: Test A postemergence; details: for Wheat plant response rating: 125 g ai/ha, visual injury rating on 0 to 100 scale (0 no effect, 100 complete control), approx. 10 d; for Plant response rating, Wheat: 500 g ai/ha
From the text: as §1, §2

[10] = test system: corn (Zea mays); test: Test A postemergence; details: for Corn plant response rating: 125 g ai/ha, visual injury rating on 0 to 100 scale (0 no effect, 100 complete control), approx. 10 d; for Plant response rating, Corn: 500 g ai/ha
From the text: as §1, §2

[11] = test system: pigweed (Amaranthus retroflexus); test: Test A preemergence; details: for Plant response rating, Pigweed: 125 g ai/ha; for Pigweed plant response rating (0 to 100 scale, 0 is no effect, 100 is complete control): 500 g ai/ha, visual injury approx. 10 d
From the text: as §1, §2

[12] = test system: ragweed (common ragweed, Ambrosia elatior); test: Test A preemergence; details: for Plant response rating, Ragweed: 125 g ai/ha; for Ragweed plant response rating (0 to 100 scale, 0 is no effect, 100 is complete control): 500 g ai/ha, visual injury approx. 10 d
From the text: as §1, §2

[13] = test system: barnyardgrass (Echinochloa crus-galli); test: Test A preemergence; details: for Plant response rating, Barnyardgrass: 125 g ai/ha; for Barnyardgrass plant response rating (0 to 100 scale, 0 is no effect, 100 is complete control): 500 g ai/ha, visual injury approx. 10 d
From the text: as §1, §2

[14] = test system: Kochia (Kochia scoparia); test: Test A preemergence; details: for Plant response rating, Kochia: 125 g ai/ha; for Kochia plant response rating (0 to 100 scale, 0 is no effect, 100 is complete control): 500 g ai/ha, visual injury approx. 10 d
From the text: as §1, §2

[15] = test system: giant foxtail (Setaria faberii); test: Test A preemergence; details: for Plant response rating, Foxtail, Giant: 125 g ai/ha; for Foxtail, Giant plant response rating (0 to 100 scale, 0 is no effect, 100 is complete control): 500 g ai/ha, visual injury approx. 10 d
From the text: as §1, §2

[16] = test system: ryegrass, Italian (Italian ryegrass, Lolium multiflorum); test: Test A preemergence; details: for Plant response rating, Ryegrass, Italian: 125 g ai/ha; for Ryegrass, Italian plant response rating (0 to 100 scale, 0 is no effect, 100 is complete control): 500 g ai/ha, visual injury approx. 10 d
From the text: as §1, §2

[17] = Postemergence, 0 to 100 scale where 0 is no effect and 100 is complete control
[18] = Preemergence, visual injury after approximately 10 d, 0 to 100 scale where 0 is no effect and 100 is complete control
[19] = postemergence, 0 to 100 scale, 0 no effect, 100 complete control
[20] = preemergence, 0 to 100 scale (0 no effect, 100 complete control)

In the case of `O=C1NCC(c2cc(Br)cs2)C1C(=O)Nc1cccc(F)c1F` (racemic) [Compound 510], the “Galium plant response rating” value ([1]; postemergence) is reported as 0, the “Plant response rating, Galium” value [1, 17] is reported as 0 and the “Pigweed plant response rating” value ([2]; postemergence) is reported as 0. The “Plant response rating, Pigweed” value [2, 17] was 0, the “Ragweed plant response rating” value ([3]; postemergence) was 0 and the “Plant response rating, Ragweed” value [3, 17] was 30. For the same compound, the “Barnyardgrass plant response rating” value ([4]; postemergence) was 60, the “Plant response rating, Barnyardgrass” value [4, 17] was 70 and the “Kochia plant response rating” value ([5]; postemergence) was 0. For the same compound, the “Plant response rating, Kochia” value [5, 17] was 40, the “Foxtail, Giant plant response rating” value ([6]; postemergence) was 10 and the “Plant response rating, Foxtail, Giant” value [6, 17] was 30. The “Ryegrass, Italian plant response rating” value ([7]; postemergence) was 0, the “Plant response rating, Ryegrass, Italian” value [7, 17] was 20 and the “Blackgrass plant response rating” value ([8]; postemergence) was 0. The “Plant response rating, Blackgrass” value [8, 17] was 40, the “Wheat plant response rating” value ([9]; postemergence) was 0 and the “Plant response rating, Wheat” value [9, 17] was 0. For the same compound, the “Corn plant response rating” value ([10]; postemergence) was 0, the “Plant response rating, Corn” value [10, 17] was 0 and the “Plant response rating, Pigweed” value [11, 18] was 0. For the same compound, the “Pigweed plant response rating (0 to 100 scale, 0 is no effect, 100 is complete control)” value ([11]; Preemergence) was 0, the “Plant response rating, Ragweed” value [12, 18] was 30 and the “Ragweed plant response rating (0 to 100 scale, 0 is no effect, 100 is complete control)” value ([12]; Preemergence) was 50. For the same compound, the “Plant response rating, Barnyardgrass” value [13, 18] was 60, the “Barnyardgrass plant response rating (0 to 100 scale, 0 is no effect, 100 is complete control)” value ([13]; Preemergence) was 80 and the “Plant response rating, Kochia” value [14, 18] was 30. The “Kochia plant response rating (0 to 100 scale, 0 is no effect, 100 is complete control)” value ([14]; Preemergence) was 50, the “Plant response rating, Foxtail, Giant” value [15, 18] was 60 and the “Foxtail, Giant plant response rating (0 to 100 scale, 0 is no effect, 100 is complete control)” value ([15]; Preemergence) was 70. The “Plant response rating, Ryegrass, Italian” value [16, 18] was 0 and the “Ryegrass, Italian plant response rating (0 to 100 scale, 0 is no effect, 100 is complete control)” value ([16]; Preemergence) was 10.
For `CC(=O)c1ccccc1NC(=O)C1C(=O)NCC1c1ccc(F)c(F)c1` (stereo not shown) [Compound 418], the “Galium plant response rating” value ([1]; postemergence) was 0, the “Plant response rating, Galium” value [1, 19] was 0 and the “Pigweed plant response rating” value ([2]; postemergence) was 0. For the same compound, the “Plant response rating, Pigweed” value [2, 19] was 0, the “Ragweed plant response rating” value ([3]; postemergence) was 0 and the “Plant response rating, Ragweed” value [3, 19] was 0. The “Barnyardgrass plant response rating” value ([4]; postemergence) was 0, the “Plant response rating, Barnyardgrass” value [4, 19] was 0 and the “Kochia plant response rating” value ([5]; postemergence) was 0. For the same compound, the “Plant response rating, Kochia” value [5, 19] was 0, the “Foxtail, Giant plant response rating” value ([6]; postemergence) was 0 and the “Plant response rating, Foxtail, Giant” value [6, 19] was 0. For the same compound, the “Ryegrass, Italian plant response rating” value ([7]; postemergence) was 0, the “Plant response rating, Ryegrass, Italian” value [7, 19] was 0 and the “Blackgrass plant response rating” value ([8]; postemergence) was 0. The “Plant response rating, Blackgrass” value [8, 19] was 0, the “Wheat plant response rating” value ([9]; postemergence) was 0 and the “Plant response rating, Wheat” value [9, 19] was 0. For the same compound, the “Corn plant response rating” value ([10]; postemergence) was 0, the “Plant response rating, Corn” value [10, 19] was 0 and the “Plant response rating, Pigweed” value [11, 20] was 0. For the same compound, the “Pigweed plant response rating (0 to 100 scale, 0 is no effect, 100 is complete control)” value ([11]; Preemergence) was 0, the “Plant response rating, Ragweed” value [12, 20] was 0 and the “Ragweed plant response rating (0 to 100 scale, 0 is no effect, 100 is complete control)” value ([12]; Preemergence) was 0. For the same compound, the “Plant response rating, Barnyardgrass” value [13, 20] was 0, the “Barnyardgrass plant response rating (0 to 100 scale, 0 is no effect, 100 is complete control)” value ([13]; Preemergence) was 0 and the “Plant response rating, Kochia” value [14, 20] was 0. The “Kochia plant response rating (0 to 100 scale, 0 is no effect, 100 is complete control)” value ([14]; Preemergence) was 0, the “Plant response rating, Foxtail, Giant” value [15, 20] was 0 and the “Foxtail, Giant plant response rating (0 to 100 scale, 0 is no effect, 100 is complete control)” value ([15]; Preemergence) was 0. The “Plant response rating, Ryegrass, Italian” value [16, 20] was 0 and the “Ryegrass, Italian plant response rating (0 to 100 scale, 0 is no effect, 100 is complete control)” value ([16]; Preemergence) was 0.
